The target of one assay is T1, Cysteine protease ATG4B (Homo sapiens, UniProt Q9Y4P1).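 Further: Fluorescence-based dose-response confirmation assay measuring inhibition of ATG4B activity.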
T1 sequence (Q9Y4P1 whole entry): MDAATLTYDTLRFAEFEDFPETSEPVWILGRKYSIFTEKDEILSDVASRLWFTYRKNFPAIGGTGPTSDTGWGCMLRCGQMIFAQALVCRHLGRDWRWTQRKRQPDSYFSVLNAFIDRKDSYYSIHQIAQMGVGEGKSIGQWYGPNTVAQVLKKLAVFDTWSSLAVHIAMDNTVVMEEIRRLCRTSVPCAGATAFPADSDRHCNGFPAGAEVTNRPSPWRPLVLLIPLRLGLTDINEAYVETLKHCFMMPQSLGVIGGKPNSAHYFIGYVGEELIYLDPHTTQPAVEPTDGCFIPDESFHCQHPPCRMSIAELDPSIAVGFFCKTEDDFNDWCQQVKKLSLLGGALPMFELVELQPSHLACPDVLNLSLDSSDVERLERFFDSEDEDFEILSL
In kind it is functional.

For assay [1], the target named is 72 kDa type IV collagenase (Homo sapiens, UniProt P08253). Nature of the assay: Dose Response validation of uHTS RPN11 inhibitor hits using a MMP-2 Fluorescence assay. In kind it is functional.
For assay [2], the target named is T2, Small ubiquitin-related modifier 1 (Homo sapiens, UniProt P63165). In words: SUMO1 protein-protein binding blockers, potency – biochemical, FRET, dose response (AID 624383). In kind it is functional. The conditions noted are these: read-out: IC50_Mean.
T2 sequence (P63165 whole entry): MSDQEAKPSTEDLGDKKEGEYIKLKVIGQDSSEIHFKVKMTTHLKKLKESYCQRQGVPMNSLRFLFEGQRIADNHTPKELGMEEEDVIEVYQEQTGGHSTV
In a further assay the target is T3, ORF 73 (Human herpesvirus 8, UniProt O40947).
T3 sequence (O40947 whole entry): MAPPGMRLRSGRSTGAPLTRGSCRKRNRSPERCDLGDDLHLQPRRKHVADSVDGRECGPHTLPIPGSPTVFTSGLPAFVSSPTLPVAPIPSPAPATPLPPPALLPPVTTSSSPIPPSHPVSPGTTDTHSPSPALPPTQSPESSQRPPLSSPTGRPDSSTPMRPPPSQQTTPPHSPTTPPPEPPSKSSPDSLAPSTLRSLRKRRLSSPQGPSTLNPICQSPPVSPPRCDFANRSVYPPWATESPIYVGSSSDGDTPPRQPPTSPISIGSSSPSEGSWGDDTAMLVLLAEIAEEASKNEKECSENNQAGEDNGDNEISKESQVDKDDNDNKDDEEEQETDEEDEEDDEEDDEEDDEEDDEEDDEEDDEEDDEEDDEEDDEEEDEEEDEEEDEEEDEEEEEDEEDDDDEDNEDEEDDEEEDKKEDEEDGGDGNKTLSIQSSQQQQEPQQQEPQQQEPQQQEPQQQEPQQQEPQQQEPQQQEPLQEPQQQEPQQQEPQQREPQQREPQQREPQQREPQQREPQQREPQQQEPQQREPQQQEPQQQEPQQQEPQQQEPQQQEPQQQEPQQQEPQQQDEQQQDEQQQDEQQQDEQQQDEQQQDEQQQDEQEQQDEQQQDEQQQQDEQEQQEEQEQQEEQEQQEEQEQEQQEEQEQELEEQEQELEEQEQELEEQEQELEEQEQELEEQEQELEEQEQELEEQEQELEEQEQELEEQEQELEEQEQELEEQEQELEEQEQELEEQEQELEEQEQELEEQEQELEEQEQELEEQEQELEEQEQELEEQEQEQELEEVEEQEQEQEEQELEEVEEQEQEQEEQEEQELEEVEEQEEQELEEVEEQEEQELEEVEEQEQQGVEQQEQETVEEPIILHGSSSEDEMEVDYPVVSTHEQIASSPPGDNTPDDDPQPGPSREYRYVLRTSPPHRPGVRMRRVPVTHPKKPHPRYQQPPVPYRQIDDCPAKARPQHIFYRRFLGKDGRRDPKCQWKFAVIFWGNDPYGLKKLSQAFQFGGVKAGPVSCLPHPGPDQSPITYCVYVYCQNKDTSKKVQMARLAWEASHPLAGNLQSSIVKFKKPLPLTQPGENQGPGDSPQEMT
In words: KSHV LANA DNA-binding disruption – biochemical, fluorescence polarization, cherry-picked samples, dose response (AID 504725).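 Further: fluorescence polarization of a labeled DNA duplex reporting LANA DNA binding; potency is for inhibitors that block LANA binding to the DNA.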 Also noted: species or system Human gammaherpesvirus 8.

For assay [3], the target named is 26S proteasome non-ATPase regulatory subunit 14 (Homo sapiens, UniProt O00487). In words: inhibition of proteasome subunit RPN11 – biochemical, fluorescence polarization, uHTS hits, confirmation (AID 602368). In kind it is functional. (In general: Fluorescence polarisation rises when a labelled molecule tumbles more slowly, as on binding a larger partner.)
The target in assay [4] is T4, RNA-binding protein pos-1 (Caenorhabditis elegans, UniProt G5EF15).
T4 sequence (G5EF15 whole entry): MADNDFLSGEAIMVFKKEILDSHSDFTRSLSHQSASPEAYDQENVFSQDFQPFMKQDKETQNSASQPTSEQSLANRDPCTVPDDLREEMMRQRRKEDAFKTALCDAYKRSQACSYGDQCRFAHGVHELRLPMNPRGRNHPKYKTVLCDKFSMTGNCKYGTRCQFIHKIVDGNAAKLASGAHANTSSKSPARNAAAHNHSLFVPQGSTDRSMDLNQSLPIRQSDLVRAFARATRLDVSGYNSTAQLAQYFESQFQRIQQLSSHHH
Nature of the assay: disruptors of C. elegans POS-1 RNA interaction – biochemical, fluorescence polarization, dose response (AID 1964).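 Further: purified POS-1 fused to maltose binding protein made in E. coli; potency of compounds blocking POS-1 binding to fluorescent RNA.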

For another assay, the target named is Large T antigen (Simian virus 40, UniProt P03070). In kind it is functional, Betapolyomavirus macacae.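 Further: Confirmatory-stage PubChem screen for compounds that inhibit SV40 T antigen.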
The next assay addresses Genome polyprotein (dengue virus type 2, UniProt P29990). In words: flavivirus cap methylation enzyme inhibition – biochemical, confirmation dose response, primary screen (AID 588689). In kind it is functional.
For another assay, the target named is Phospholipase A2 (Homo sapiens, UniProt P04054). In kind it is functional.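 Further: confirmatory dose-response counterscreen on phospholipase A2, testing hits that came from an ultra-high-throughput screen for ATG4B inhibitors.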
Chain of Phospholipase A2 (P04054 whole entry): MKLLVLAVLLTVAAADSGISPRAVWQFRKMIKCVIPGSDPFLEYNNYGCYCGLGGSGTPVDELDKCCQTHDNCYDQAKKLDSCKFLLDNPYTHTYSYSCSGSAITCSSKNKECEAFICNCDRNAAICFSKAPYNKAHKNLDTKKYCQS
Assay [5] has as its target T5, Zinc finger protein mex-5 (Caenorhabditis elegans, UniProt Q9XUB2).
T5 sequence (Q9XUB2 whole entry): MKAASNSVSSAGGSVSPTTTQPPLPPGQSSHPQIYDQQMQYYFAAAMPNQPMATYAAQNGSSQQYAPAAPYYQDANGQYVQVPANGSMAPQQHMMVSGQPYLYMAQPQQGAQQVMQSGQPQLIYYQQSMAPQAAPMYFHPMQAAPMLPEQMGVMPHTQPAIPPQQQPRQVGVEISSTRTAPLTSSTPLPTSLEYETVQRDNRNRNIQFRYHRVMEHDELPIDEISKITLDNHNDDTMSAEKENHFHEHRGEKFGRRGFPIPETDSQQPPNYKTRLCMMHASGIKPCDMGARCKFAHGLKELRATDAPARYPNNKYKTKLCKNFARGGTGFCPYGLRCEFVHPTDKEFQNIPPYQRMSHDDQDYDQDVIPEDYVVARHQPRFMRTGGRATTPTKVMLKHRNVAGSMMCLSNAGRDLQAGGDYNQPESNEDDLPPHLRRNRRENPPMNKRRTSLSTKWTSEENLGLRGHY
In words: potency of MEX-5 RNA-binding blockers – biochemical, C. elegans, fluorescence polarization, dose response (AID 1960).

The target in a further assay is Prothrombin (Bos taurus, UniProt P00735). Nature of the assay: thrombin protease inhibitors – biochemical, fluorescence polarization, uHTS hits, dose response (AID 602369). In kind it is functional.
The target in assay [6] is T2, Small ubiquitin-related modifier 1. In words: SUMO1 protein interaction blockers, potency – biochemical, fluorescence polarization, uHTS hits, dose response (AID 624382). In kind it is functional. The conditions noted are these: read-out: IC50_Mean.
The target of assay [7] is DNA (cytosine-5)-methyltransferase 1 (Homo sapiens, UniProt P26358). Nature of the assay: inhibition of DNA methylation by DNMT1 – biochemical, fluorescent molecular beacon, confirmation (AID 602386). In kind it is functional.
The nature of assay [8]: cAMP pathway inhibition in counterscreen cell line – TR-FRET cAMP detection, counter-screen for MC4R biased antagonist project, dose response (AID 602305).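 Further: U2OS cells stimulated with forskolin near its EC80 as the cAMP inducer; potency is for inhibition of forskolin-stimulated cAMP signaling.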 In kind it is functional, cell-based. For orientation: A counterscreen serves to expose hits that act by an unwanted route or on another target.
A further assay addresses Melanocortin receptor 4 (Homo sapiens, UniProt P32245). Nature of the assay: inhibitors of MC4R cAMP signaling – cell-based, TR-FRET, biased antagonists, dose response (AID 602298).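 Further: antagonist potency against agonist-stimulated cAMP production.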 In kind it is functional. For orientation: TR-FRET usually uses a lanthanide donor and a delayed reading to cut background.
The target in the next assay is Paired box protein Pax-8 (Homo sapiens, UniProt Q06710). Nature of the assay: PAX8 transcriptional activity inhibition in RMG-I – RMG-I cells, luciferase, cherry-pick, dose response (AID 687027).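 Further: luciferase reporter driven by Pax8 target thyroperoxidase promoter measured by SteadyGlo luminescence.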 In kind it is functional, cell-based.
For assay [9], the target named is Hepatocyte nuclear factor 4-alpha (Homo sapiens, UniProt P41235). In kind it is functional, cell-based.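 Further: biochemical luminescence-based dose-response counterscreen measuring inhibition of HNF4 dimerization, run alongside a screen for blockers of ABHD5–perilipin-5 interaction; split luciferase complementation of HNF4 fusion proteins in cell lysate measuring dimerization.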
Chain of Hepatocyte nuclear factor 4-alpha (P41235 whole entry, the tested form may be a part): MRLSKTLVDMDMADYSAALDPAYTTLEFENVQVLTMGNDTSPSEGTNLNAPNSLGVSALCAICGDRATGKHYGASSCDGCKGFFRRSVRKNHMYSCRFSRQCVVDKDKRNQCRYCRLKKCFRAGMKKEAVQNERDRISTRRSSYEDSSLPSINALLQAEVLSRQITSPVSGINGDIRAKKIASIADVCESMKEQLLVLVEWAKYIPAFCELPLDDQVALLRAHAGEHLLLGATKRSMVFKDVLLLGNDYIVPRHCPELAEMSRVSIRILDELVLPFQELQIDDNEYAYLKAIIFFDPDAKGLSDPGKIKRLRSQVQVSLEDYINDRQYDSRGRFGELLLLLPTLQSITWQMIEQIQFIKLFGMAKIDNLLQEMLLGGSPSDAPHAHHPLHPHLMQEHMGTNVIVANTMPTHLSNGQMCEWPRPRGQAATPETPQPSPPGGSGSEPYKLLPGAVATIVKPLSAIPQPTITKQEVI
Assay [10] has as its target T6, Sentrin-specific protease 1 (Homo sapiens, UniProt Q9P0U3). In words: Dose response confirmation of small molecule inhibitors of the catalytic domain of the SUMO protease, SENP1 in a FRET assay. In kind it is functional. The conditions noted are these: read-out: IC50_Mean.
The target of assay [11] is T6, Sentrin-specific protease 1. Nature of the assay: SENP1 catalytic domain blockers, concentration series – biochemical, kinetic FRET, dose response (AID 651697). In kind it is functional. The conditions noted are these: read-out: IC50_Mean.
Assay [12] has as its target Tyrosine-protein kinase JAK3 (Homo sapiens, UniProt P52333). In kind it is functional.
Another assay deals with Aurora kinase A (Homo sapiens, UniProt O14965). In kind it is functional.
The target in assay [13] is ALK tyrosine kinase receptor (Homo sapiens, UniProt Q9UM73). In kind it is functional.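 Further: ALK tested as one member of a kinase panel screen.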
The target in assay [14] is T7, ATP-dependent translocase ABCB1 (Homo sapiens, UniProt P08183). Nature of the assay: P-gp JC-1 efflux blockade concentration-response – Jurkat-DNR cells, flow cytometry, set 2, dose response (AID 504569).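 Further: potency of pump inhibitors that raise cellular JC-1 green fluorescence up to the nicardipine level.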 In kind it is functional. The conditions noted are these: read-out: EC50_MICROM_.
T7 sequence (P08183 whole entry): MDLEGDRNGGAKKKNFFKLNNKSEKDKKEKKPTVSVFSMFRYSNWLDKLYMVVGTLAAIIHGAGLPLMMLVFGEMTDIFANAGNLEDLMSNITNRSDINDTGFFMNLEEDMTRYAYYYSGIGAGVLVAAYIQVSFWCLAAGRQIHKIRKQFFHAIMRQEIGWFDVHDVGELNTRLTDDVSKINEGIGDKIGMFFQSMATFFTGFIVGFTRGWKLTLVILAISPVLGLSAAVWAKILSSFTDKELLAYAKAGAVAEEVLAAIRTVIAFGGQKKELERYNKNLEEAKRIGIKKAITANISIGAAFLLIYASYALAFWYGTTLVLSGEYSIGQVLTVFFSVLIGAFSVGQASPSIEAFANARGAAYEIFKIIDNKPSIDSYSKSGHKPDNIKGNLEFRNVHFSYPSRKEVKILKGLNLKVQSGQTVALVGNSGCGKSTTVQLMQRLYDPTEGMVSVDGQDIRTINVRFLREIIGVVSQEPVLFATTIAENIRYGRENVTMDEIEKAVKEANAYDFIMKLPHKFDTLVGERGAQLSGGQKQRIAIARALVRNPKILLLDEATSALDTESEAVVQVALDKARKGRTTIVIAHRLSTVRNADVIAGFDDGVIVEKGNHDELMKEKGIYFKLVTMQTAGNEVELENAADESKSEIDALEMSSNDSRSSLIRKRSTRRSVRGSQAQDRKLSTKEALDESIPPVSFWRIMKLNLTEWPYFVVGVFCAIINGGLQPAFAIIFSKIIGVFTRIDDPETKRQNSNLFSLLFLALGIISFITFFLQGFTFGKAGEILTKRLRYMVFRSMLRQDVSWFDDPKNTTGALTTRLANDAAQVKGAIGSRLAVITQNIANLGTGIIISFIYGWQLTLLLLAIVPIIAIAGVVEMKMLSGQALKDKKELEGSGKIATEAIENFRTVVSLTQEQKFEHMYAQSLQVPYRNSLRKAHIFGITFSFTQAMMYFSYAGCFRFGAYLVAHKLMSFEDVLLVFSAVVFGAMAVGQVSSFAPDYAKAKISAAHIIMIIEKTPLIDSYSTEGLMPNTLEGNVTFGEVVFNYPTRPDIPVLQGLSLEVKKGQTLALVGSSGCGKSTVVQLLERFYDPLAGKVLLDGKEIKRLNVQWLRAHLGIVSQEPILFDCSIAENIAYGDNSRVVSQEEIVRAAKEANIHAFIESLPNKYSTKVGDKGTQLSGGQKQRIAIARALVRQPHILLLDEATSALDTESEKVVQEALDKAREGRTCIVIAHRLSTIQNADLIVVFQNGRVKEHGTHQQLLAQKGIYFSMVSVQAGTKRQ
Assay [15] has as its target T7, ATP-dependent translocase ABCB1. In words: inhibition of BCRP-mediated JC-1 efflux – Ig-MXP3 cells, flow cytometry, set 2, dose response (AID 504566).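 Further: flow cytometry median green fluorescence of retained JC-1 dye; potency of efflux pump inhibition measured as rising substrate retention.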 In kind it is functional. The conditions noted are these: read-out: EC50_MICROM_.
Assay [16] deals with Mitochondrial peptide methionine sulfoxide reductase (Bos taurus, UniProt P54149). In kind it is functional.
Assay [17] addresses Dual specificity protein kinase CLK2 (Homo sapiens, UniProt P49760). In kind it is functional.
Assay [18] has as its target G protein-coupled receptor kinase 5 (Homo sapiens, UniProt P34947). Nature of the assay: Navigating the Kinome. Panel member name: GPRK5. In kind it is functional.

Activity calls are given as the source filed them.

The values that follow come from ChEMBL document CHEMBL1201862, “PubChem BioAssay data set” (2004).

T6 sequence (Q9P0U3 whole entry, the tested form may be a part): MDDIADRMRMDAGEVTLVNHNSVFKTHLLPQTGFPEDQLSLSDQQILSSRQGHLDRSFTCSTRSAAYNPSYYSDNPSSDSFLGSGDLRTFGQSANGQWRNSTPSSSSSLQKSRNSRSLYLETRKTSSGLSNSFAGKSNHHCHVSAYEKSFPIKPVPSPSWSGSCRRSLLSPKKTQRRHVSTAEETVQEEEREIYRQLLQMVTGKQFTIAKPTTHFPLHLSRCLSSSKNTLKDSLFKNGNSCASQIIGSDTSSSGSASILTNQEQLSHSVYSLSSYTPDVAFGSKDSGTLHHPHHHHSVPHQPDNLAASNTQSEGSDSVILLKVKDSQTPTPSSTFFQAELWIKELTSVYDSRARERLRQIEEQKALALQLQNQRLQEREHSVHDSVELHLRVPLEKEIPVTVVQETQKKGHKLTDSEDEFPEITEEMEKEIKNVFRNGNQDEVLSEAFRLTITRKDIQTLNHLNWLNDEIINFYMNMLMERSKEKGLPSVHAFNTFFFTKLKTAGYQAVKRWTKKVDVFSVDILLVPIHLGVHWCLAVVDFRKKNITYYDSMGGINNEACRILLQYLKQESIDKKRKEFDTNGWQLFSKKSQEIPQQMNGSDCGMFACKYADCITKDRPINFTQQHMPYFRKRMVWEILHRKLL
Chain of Tyrosine-protein kinase JAK3 (P52333 whole entry): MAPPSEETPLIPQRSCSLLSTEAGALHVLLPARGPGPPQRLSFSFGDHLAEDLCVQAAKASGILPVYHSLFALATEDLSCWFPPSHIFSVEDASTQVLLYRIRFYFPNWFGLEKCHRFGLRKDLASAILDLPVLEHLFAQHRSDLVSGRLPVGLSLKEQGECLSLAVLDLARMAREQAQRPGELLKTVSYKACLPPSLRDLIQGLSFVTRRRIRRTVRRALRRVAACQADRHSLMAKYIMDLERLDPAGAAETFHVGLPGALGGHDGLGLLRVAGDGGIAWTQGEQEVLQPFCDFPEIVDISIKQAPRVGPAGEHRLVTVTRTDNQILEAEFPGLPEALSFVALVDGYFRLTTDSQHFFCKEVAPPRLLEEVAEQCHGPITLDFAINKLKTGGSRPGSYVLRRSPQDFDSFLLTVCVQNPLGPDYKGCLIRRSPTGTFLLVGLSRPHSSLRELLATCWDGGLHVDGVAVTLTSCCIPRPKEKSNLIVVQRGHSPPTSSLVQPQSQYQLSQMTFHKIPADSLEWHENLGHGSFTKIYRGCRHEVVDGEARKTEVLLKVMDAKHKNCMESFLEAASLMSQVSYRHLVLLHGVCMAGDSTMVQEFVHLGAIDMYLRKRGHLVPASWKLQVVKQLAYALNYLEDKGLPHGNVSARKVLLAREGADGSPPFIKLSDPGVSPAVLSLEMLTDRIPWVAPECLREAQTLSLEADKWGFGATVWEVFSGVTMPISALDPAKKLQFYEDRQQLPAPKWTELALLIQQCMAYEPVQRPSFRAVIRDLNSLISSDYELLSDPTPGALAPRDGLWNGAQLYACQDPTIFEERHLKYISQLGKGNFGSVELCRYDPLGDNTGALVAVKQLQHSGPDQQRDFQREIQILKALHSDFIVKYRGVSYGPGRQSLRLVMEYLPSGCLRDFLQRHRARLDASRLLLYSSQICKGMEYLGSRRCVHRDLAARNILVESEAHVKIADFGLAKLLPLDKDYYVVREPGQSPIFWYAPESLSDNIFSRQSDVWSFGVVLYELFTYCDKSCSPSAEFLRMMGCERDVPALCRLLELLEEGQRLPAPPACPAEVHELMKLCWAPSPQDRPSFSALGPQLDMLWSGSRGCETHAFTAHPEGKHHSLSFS
Chain of G protein-coupled receptor kinase 5 (P34947 whole entry): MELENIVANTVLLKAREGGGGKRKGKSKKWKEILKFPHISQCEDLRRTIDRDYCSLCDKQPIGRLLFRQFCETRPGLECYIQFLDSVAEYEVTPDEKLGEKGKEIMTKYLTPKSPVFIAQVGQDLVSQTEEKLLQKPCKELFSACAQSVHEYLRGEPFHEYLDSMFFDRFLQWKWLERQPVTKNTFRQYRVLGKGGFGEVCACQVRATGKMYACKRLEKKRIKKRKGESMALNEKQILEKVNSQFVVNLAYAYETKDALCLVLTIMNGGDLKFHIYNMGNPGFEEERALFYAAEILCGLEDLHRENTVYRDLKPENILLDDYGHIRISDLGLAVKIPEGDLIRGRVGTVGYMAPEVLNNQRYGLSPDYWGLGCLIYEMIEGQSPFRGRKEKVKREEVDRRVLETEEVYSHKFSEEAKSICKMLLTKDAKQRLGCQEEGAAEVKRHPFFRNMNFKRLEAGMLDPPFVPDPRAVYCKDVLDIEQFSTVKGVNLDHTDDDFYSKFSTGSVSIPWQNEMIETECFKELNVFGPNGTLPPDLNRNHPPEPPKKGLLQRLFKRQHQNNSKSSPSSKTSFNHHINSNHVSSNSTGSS
Chain of Dual specificity protein kinase CLK2 (P49760 whole entry): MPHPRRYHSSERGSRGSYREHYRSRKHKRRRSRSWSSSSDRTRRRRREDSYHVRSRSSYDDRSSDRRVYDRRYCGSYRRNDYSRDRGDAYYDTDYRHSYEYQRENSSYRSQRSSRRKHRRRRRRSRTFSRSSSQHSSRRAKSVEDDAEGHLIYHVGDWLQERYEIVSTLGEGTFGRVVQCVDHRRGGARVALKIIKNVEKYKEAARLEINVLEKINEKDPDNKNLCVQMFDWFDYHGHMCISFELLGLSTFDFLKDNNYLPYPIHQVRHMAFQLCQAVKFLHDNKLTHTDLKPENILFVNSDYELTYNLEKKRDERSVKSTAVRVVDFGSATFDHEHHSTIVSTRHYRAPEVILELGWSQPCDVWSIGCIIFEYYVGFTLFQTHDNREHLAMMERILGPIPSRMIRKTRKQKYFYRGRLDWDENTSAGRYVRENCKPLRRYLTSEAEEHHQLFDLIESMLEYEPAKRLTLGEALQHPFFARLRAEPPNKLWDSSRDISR

By AC50 is commonly meant the midpoint of the concentration-response curve, whichever way the signal moves. `O=c1[nH]c(=S)[nH]c2c1C(c1ccc(Br)cc1)c1c([nH]c(=S)[nH]c1=O)O2`: the IC50 at Cysteine protease ATG4B was 2.96 µM (active); in assay [1], 0.0169 µM (active); in [2] it was 10.3 µM (active); in assay [3] it was 14.5 µM (active); on Large T antigen, 21.4 µM (active); on Genome polyprotein, 73.7 µM (active). Moreover, the IC50 on Phospholipase A2 was 29.2 µM (inactive); on Prothrombin it was 20.8 µM (active); in assay [6], > 66.6 µM (inactive). For the same compound, the AC50 at ORF 73 is 281 µM (active). Further, the EC50 in [4] was 4.86 µM (inconclusive); in [5], 4.53 µM (active).

On to `CCOC(=O)C(NC(=O)CC(C)C)(Nc1sc2c(c1C(N)=O)CCCC2)C(F)(F)F` (configuration not stated), for which the IC50 in [7] was > 99 µM (inactive).

For the compound `COC(=O)c1sc(N)c(C(=O)OC)c1COC(=O)CNS(=O)(=O)c1ccc(C)c(C)c1`, the IC50 (in [8]; on Melanocortin receptor 4) was > 64.6 µM (inactive) throughout.

In the case of `C#CCN(C[C@@H]1[C@@H](OC(=O)NCc2ccc(OC)c(OC)c2)[C@@H](OC(=O)NCc2ccc(OC)c(OC)c2)Cn2c(=O)ccc(=O)n21)S(=O)(=O)c1ccc(C)cc1`, the AC50 on Paired box protein Pax-8 is 3.91 µM (active). In addition, the IC50 in assay [9] is 32.1 µM (inactive).

As for `Nc1ccc2c(c1)-c1ccc(F)cc1C2=O`, the IC50 in [10] is 19.4 µM (active); in assay [11], 76.9 µM (inactive).

A word on the Ki: it is the dissociation constant of the complex between target and ligand, obtained from inhibition or displacement. On to `CC(C)CC(NC(=O)c1cccc(-n2nc(C(C)(C)C)cc2NC(=O)Nc2cccc3ccccc23)c1)C(N)=O` (configuration not stated), for which the Ki in assay [12] is 5.01 µM (active).

Regarding `Cc1cccc(NC(=O)Nc2ccc(-c3csc4c(-c5ccc(NC(=O)CCCN(C)C)cc5)cnc(N)c34)cc2)c1`, the Ki on Aurora kinase A is 0.0501 µM (active); in assay [13], 0.398 µM (active).

With `O=C(c1cccc(Cl)c1)N1CCN(c2cc(-c3ccccc3)nc3cc(-c4cccc(Cl)c4)nn23)CC1`, the EC50 in assay [14] is 3.16 µM (active); in assay [15] it was 2.66 µM (active).

Take `C/C(=N\Nc1ccc(C(F)(F)F)cc1[N+](=O)[O-])C1CC1`: in [16], the IC50 is 155 µM (inactive).

As for `COc1cc2c(Nc3ccc(Br)cc3F)ncnc2cc1OCC1CCN(C)CC1` [VANDETANIB], the Ki in assay [17] is > 2 µM (inactive); in [18] it was > 3.98 µM (inactive).
